Our source for the TGI values is PubChem BioAssay (NCI).

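In this assay, cells in 96-well plates receive the compound at five concentrations for 48 hours. Endpoints are linearly interpolated between the surrounding concentrations. At the TGI there is no net growth.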

What all share (test): inhibition of tumour cell growth, NCI panel, 48 h
In assay [1] the test system is MCF7 breast.
Assay [2] relates to UO-31 renal.
The test system of assay [3] is 786-0 renal.
For assay [4], the system named is PC-3 prostate.
Assay [5] deals with HT29 colon.
Assay [6] has as its system OVCAR-3 ovarian.
Assay [7] relates to CCRF-CEM leukemia.
For assay [8], the system named is NCI-H522 lung.
The test system of assay [9] is HCT-15 colon.
In assay [10] the test system is OVCAR-8 ovarian.
Assay [11] concerns HOP-62 NSCLC.
Assay [12] has as its system UACC-62 melanoma.
The test system of assay [13] is COLO 205 colon.
In assay [14] the test system is SK-MEL-28 melanoma.
The subject of assay [15] is SF-268 CNS.
Assay [16] relates to OVCAR-5 ovarian.
The subject of assay [17] is RXF 393 renal.
Assay [18] deals with HCT-116 colon.
Assay [19] concerns SR leukemia.
In assay [20] the test system is MDA-MB-231 breast.

Regarding `COc1ccccc1C1c2cc3c(cc2OC(N2CCCC2)C1C)OCO3` (stereo not drawn), the TGI amounted to 39.4 µM in assay [1]; 33 µM in [2]; 35.3 µM in assay [3]; 32.4 µM in assay [4]; 39.5 µM in [5]; 32.4 µM in assay [6]. The TGI came out at 47.8 µM in assay [7]; 42.1 µM in assay [8]; 44.6 µM in assay [9]; 64 µM in assay [10]; 29.4 µM in assay [11]; 38.4 µM in assay [12]. Besides, the TGI in [13] is 35.6 µM; in [14], 48 µM; in assay [15], 30.9 µM; in assay [16], 41.1 µM; in assay [17], 36.9 µM; in [18], 29.1 µM. The molecule further gave a TGI in assay [19] of 31.1 µM.
For `COc1ccc(C(=O)Oc2c(C#N)sc3c2c(=O)n(-c2ccccc2)c(=S)n3-c2ccccc2)cc1`, the TGI in [1] is 80.4 µM; in assay [2], 3.94 µM; in [3], over 100 µM; in assay [4], 98.7 µM; in assay [5] it was 62 µM; in [20], over 100 µM. Also, the TGI in assay [6] was 97.4 µM; in assay [7] it was 74 µM; in assay [8] it was 4.11 µM; in assay [9] it was 46.3 µM; in assay [10], over 100 µM; in assay [11] it was 73.9 µM. Further, the TGI in [12] is 24.5 µM; in assay [13] it was 80.4 µM; in assay [14], over 100 µM; in assay [15], over 100 µM; in assay [16] it was 68.5 µM; in assay [17] it was 53.7 µM. In [18], this molecule had a TGI of 48.9 µM.
For the molecule `CCOP(=O)(OCC)C(Cc1ccc(Cl)cc1)NS(=O)(=O)c1ccc(C)cc1` (stereo not drawn), the TGI in assay [1], in assay [3], in [4], in [5], in [20] and in [6] was over 100 µM in each case. Also, the TGI in assay [7], in assay [8], in [9], in [10], in assay [11] and in [12] was over 100 µM each time. Besides, the TGI in assay [13], in assay [14], in assay [15], in [16] and in [17] was over 100 µM throughout.
In the case of `CC(=O)NCCCCN(CCCNC(C)=O)C(=O)OCc1ccccc1`, the TGI in [1], in assay [2], in assay [3], in assay [4], in [5] and in assay [20] was over 100 µM throughout. In addition, the TGI in assay [6], in [7], in [8], in assay [9], in [10] and in assay [11] was over 100 µM each time. In addition, the TGI in assay [12], in [13], in assay [14], in assay [15], in [16] and in assay [17] was over 100 µM each time. This molecule also showed a TGI in [18] of over 100 µM.
As to `O=S(=O)(O)c1ccc2cc(N=Nc3c(O)ccc4ccccc34)ccc2c1`, the TGI in [1], in assay [2], in assay [3], in assay [4], in [5] and in assay [6] was over 100 µM each time. Besides, the TGI in [7], in assay [8], in assay [9], in assay [10], in assay [11] and in assay [12] was over 100 µM throughout. Besides, the TGI in [13], in assay [15], in [16], in assay [17], in assay [18] and in assay [19] was over 100 µM in each case.
In the case of `Cc1ccc(/N=N/C(=NNC(=O)c2ccc(C)cc2)c2ccc(N(C)C)cc2)cc1`, the TGI is 46.2 µM in assay [1]; 68 µM in [2]; over 100 µM in [3]; over 100 µM in assay [4]; 91.3 µM in [5]; over 100 µM in [20]. Also, the TGI in assay [6] is 54.2 µM; in [8] it was 49.9 µM; in [9], 91.2 µM; in assay [10] it was over 100 µM; in assay [12] it was 23.4 µM; in assay [13] it was 31.1 µM. The TGI in assay [14] was over 100 µM; in assay [15] it was over 100 µM; in assay [16], over 100 µM; in assay [18], 68.2 µM; in [19], 45.1 µM.
Take `N#Cc1c(-c2ccccc2)cc(-c2ccccc2)n(C2OCC(O)C(O)C2O)c1=S` (stereo not drawn): the TGI in [1] was 41.7 µM; in [2] it was 54 µM; in [3], 49.1 µM; in [4], 29.4 µM; in [5], 80 µM; in assay [20], 23.9 µM. In addition, the TGI in assay [6] stood at 43.2 µM; in assay [7] it was 93.1 µM; in [8], 37.9 µM; in assay [9], 60.6 µM; in [10], 43.7 µM; in assay [11] it was 64.7 µM. Also, the TGI in assay [12] amounted to 16.1 µM; in assay [13], 56.9 µM; in assay [14] it was 77.1 µM; in [15], 80 µM; in assay [16], 58.5 µM; in [17], 35.6 µM. The molecule also returned a TGI in assay [18] of 28.4 µM.
